Test results taken from patent US8685394B2, “Combination of anti-CTLA4 antibody with diverse therapeutic regimens for the synergistic treatment of proliferative diseases” (Bristol-Myers Squibb Company, priority 2008, dated 2014).
Entries after “also recorded” stand apart in the source; their conditions may differ. Read-outs that look alike come from different tables or passages of the source.

What was measured:
SA1N fibrosarcoma [1] = assay: SA1N fibrosarcoma subcutaneous tumor model; assay type: in vivo, murine; settings: SA1N s.c.; for % TGI (Average D 20-48): average of days 20-48, doses and schedules of Table 3; for CR: mice with complete regression / mice in group; for PR: mice with partial regression / mice in group; for T-C (1000 mm^3): number of days to reach target tumor size 1000 mm^3
Method: (§1) All compounds were tested at their optimal dose and schedule. When used in combination, CTLA-4 mAb was initiated one day after the first dose of chemotherapy. Percent tumor growth inhibition and number of days to reach target tumor size were used to evaluate efficacy. Antitumor activity was scored as: complete regression (CR; non-palpable tumor for ≧2 assessments) or partial regression (PR; 50% reduction in tumor volume for ≧2 assessments).

tumor models = assay: Antitumor activity in murine tumor models, model not stated (FIG. 6, 8, 9, 10; summary); assay type: in vivo; settings: concurrent treatment
M109 lung metastasis = assay: M109 lung carcinoma model of experimental pulmonary metastasis; assay type: in vivo, murine; settings: doses and schedules of Table 2, control vehicle 32
CT26 colon carcinoma [2] = assay: CT26 colon carcinoma subcutaneous tumor model; assay type: in vivo, murine; settings: for % TGI (Average) / CR / PR / T-C (1000 mm^3): CT26 s.c.; for % TGI (Average): doses and schedules of Table 4; for CR: mice with complete regression / mice in group; for PR: mice with partial regression / mice in group; for T-C (1000 mm^3): number of days to reach target tumor size 1000 mm^3
Method: as §1

M109 lung carcinoma [3] = assay: M109 lung carcinoma subcutaneous tumor model; assay type: in vivo, murine; settings: for CR / T-C (1000 mm^3) / PR / % TGI (Average): M109 s.c.; for CR: complete regression = non-palpable tumor for ≧2 assessments; for T-C (1000 mm^3): number of days to reach target tumor size 1000 mm^3, doses and schedules of Table 1; for PR: partial regression = 50% reduction in tumor volume for ≧2 assessments; for % TGI (Average): percent tumor growth inhibition, each treatment at dose (mg/kg) and schedule (study days) of Table 1
Method: as §1

in vivo cytotoxicity = settings: FIG. 12
[4] = system: immune cells in tumor-draining lymph nodes; assay: Composition of immune cells in tumor-draining lymph nodes (FIG. 13); assay type: in vivo
SA1N fibrosarcoma [5] = settings: dasatinib 30 mg/kg daily or 5 days on/2 days off, concurrent CTLA-4 mAb
CT26 colon carcinoma [6] = settings: dasatinib 30 mg/kg, concurrent CTLA-4 mAb
STAT3 = settings: Yu, H. et al., 2007; cited from earlier work
T-cell function = settings: in vitro; concentrations of 10-50 nM; inhibition of cytokine secretion and degranulation; Weischel et al., 2008; cited from earlier work
T-cell activation = settings: Schade et al., 2007; cited from earlier work
P815 mastocytoma = settings: SPRYCEL 30 mg/kg P.O., anti-CTLA-4 mAb IP days 10, 14, 18
M109 lung carcinoma [7] = settings: dasatinib with CTLA-4 mAb
[8] = CT26 colon carcinoma, established tumors

Row | Compound | % TGI (Average D 20-48) (SA1N fibrosarcoma [1]) [%] | CR (SA1N fibrosarcoma [1]) | PR (SA1N fibrosarcoma [1]) | T-C (1000 mm^3) (SA1N fibrosarcoma [1]) | CTLA-4 blockade activity under concurrent chemotherapy (tumor models) | Median Survival Time (M109 lung metastasis) [days] | antitumor activity / combination effect, in words (CT26 colon carcinoma [2]; [8]) | % TGI (Average) (CT26 colon carcinoma [2]) [%] | CR (CT26 colon carcinoma [2]) | PR (CT26 colon carcinoma [2]) | T-C (1000 mm^3) (CT26 colon carcinoma [2]) | CR (M109 lung carcinoma [3]) | T-C (1000 mm^3) (M109 lung carcinoma [3]) | PR (M109 lung carcinoma [3]) | % TGI (Average) (M109 lung carcinoma [3]) [%] | antitumor activity / combination effect, in words (M109 lung carcinoma [3]; M109 subcutaneous tumor model) | also measured
1 | 4′-Demethylepipodophyllotoxin 9-[4,6-O-(R)-ethylidene-β-D-glucopyranoside], 4′-(dihydrogen phosphate) [Etoposide] | 88 | 0/8 | 1/8 | 14 | not abolished | 34 | effective as single agents | 66 | 1/8 | 0/8 | 11 | 0 | 9 | 0 | 59 | modestly sensitive | 
2 | CC(=O)O[C@H]1C(=O)[C@@]2(C)[C@H]([C@H](OC(=O)c3ccccc3)[C@]3(O)C[C@H](OC(=O)[C@H](O)[C@@H](NC(=O)c4ccccc4)c4ccccc4)C(C)=C1C3(C)C)[C@]1(OC(C)=O)CO[C@@H]1C[C@@H]2O [Paclitaxel, 5beta,20-Epoxy-1,2alpha,4,7beta,10beta,13alpha-hexahydroxytax-11-en-9-one 4,10-diacetate 2-benzoate 13-ester with (2R,3S)-N-benzoyl-3-phenylisoserine] | 65 | 0/8 | 0/8 | 13 | not abolished | 38 |  | 0 | 0/8 | 0/8 | 0 | 0 | 5 | 0 | 45 |  | antitumor activity / combination effect, in words (CT26 colon carcinoma [2]; mouse, in vivo): ineffective; antitumor activity / combination effect, in words (M109 lung carcinoma [3]; mouse, in vivo, sc): modestly sensitive
3 | Cl.Nc1ccn([C@@H]2O[C@H](CO)[C@@H](O)C2(F)F)c(=O)n1 (single isomer, unassigned) [Gemcitabine, 2′-deoxy-2′,2′-difluorocytidine monohydrochloride (β-isomer)] | 68 | 0/8 | 0/8 | 11 | not abolished | 42 | effective as single agents | 102 | 2/8 | 0/8 | 12 | 0 | 2.2 | 0 | 32 | modestly sensitive; also recorded: did not produce significant antitumor activity | in vivo cytotoxicity (in vivo cytotoxicity): promote in vivo cytotoxicity; composition of immune cells in tumor-draining lymph nodes [4]: modulates the composition of immune cells; antitumor activity / combination effect, in words (M109 lung carcinoma [3]; M109 subcutaneous tumor model, listed as Gem): modestly sensitive; also recorded: did not produce significant M109 antitumor activity
4 | Cc1nc(Nc2ncc(C(=O)Nc3c(C)cccc3Cl)s2)cc(N2CCN(CCO)CC2)n1 [dasatinib, N-(2-chloro-6-methylphenyl)-2-[[6-[4-(2-hydroxyethyl)-1-piperazinyl]-2-methyl-4-pyrimidinyl]amino]-5-thiazolecarboxamide] |  |  |  |  |  |  |  |  |  |  |  |  |  |  |  |  | antitumor activity / combination effect, in words (SA1N fibrosarcoma [5]): modest antitumor activity; antitumor activity / combination effect, in words (CT26 colon carcinoma [6]): minimal activity; inhibition of STAT3 (STAT3): potent inhibition of STAT3; effect on T-cell function (T-cell function): inhibits T-cell function; effect on T-cell activation (T-cell activation): blockade of T-cell activation; antitumor activity / combination effect, in words (P815 mastocytoma): modest antitumor activity; antitumor activity / combination effect, in words (M109 lung carcinoma [7]): minimal activity
